Here are results for 25 compounds from US8410152B2 (Max-Planck-Gesellschaft zur Forderung der Wissenschaften e. …, priority 2006, dated 2013).

Molecules are shown by their SMILES. pIC50: −log10 of the molar value.

The test system of one data set is uninduced N2A cells. In kind it is cell-based. The conditions noted are these: cell death as percent of LDH released into medium vs total LDH, compound 10 μM. On the procedure: Neurotoxicity assay: Neurotoxicity was assessed using an LDH (lactate dehydrogenase) assay kit (Roche, Mannheim, Germany) according to the manufacturer's specifications. In the viability assay the aggregation inhibitor compound was added at a final concentration of 10 μM to uninduced N2A cells. The activity of LDH was measured spectrophotometrically at 492 nm. Cell death was calculated as percent of LDH released into medium, compared to total LDH obtained after total cell lysis.

In a further data set the target is tau construct K19 (Homo sapiens, UniProt P10636). Nature of the data set: Thioflavine S (ThS) assay for aggregation of tau. Type of data set: biochemical. The conditions noted are these: 10 μM tau construct K19, 2.5 μM heparin, ThS fluorescence; for DC50: read-out: DC50; for pIC50: over night at 37° C., read-out: ID50 (the source's name). On the procedure: Thioflavine S (ThS) Assay for aggregation of tau: 10 μM of the tau construct K19 were incubated with compounds in a concentration range from 1 nM up to 200 μM in the presence of 2.5 μM heparin in 50 mM NH4Ac buffer over night at 37° C. After addition of 20 μM ThS the signal was measured at 521 nm (emission) at an excitation wavelength of 440 nm. The results of this assay are presented in the IC50 column and DC50 column of Table 1 below.
Chain of tau construct K19 (P10636 with tags, fused parts or gaps isoform P10636-2 limits assumed): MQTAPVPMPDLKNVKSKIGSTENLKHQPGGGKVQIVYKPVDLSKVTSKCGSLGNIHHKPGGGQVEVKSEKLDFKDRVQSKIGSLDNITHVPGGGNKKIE

With `CC(C)(C)c1csc(NNC(=O)c2ccc(Cl)cc2)n1` [Comp. 48, N′-(4-tert-butyl-1,3-thiazol-2-yl)-4-chlorobenzohydrazide], the LDH with uninduced N2A cells was 48.1%. For the same compound, at tau construct K19, the DC50 is greater than 200 µM and the pIC50 is less than 3.70.
Consider `O=C(NNc1nc(-c2cc3ccccc3oc2=O)cs1)c1ccc2c(c1)OCO2` [Comp. 33, N′-[4-(2-oxo-2H-chromen-3-yl)-1,3-thiazol-2-yl]-1,3-benzodioxole-5-carbohydrazide], for which, in the data set on uninduced N2A cells, the LDH amounted to 2.0%. At tau construct K19, the DC50 was greater than 200 µM and the pIC50 is less than 3.70.
`O=C(NNc1nc(-c2ccccc2)cs1)c1ccc2c(c1)OCO2` [Comp. 45, N′-(4-phenyl-1,3-thiazol-2-yl)-1,3-benzodioxole-5-carbohydrazide]: the LDH in the data set with uninduced N2A cells worked out at 22.6%. For the same compound, on tau construct K19, the DC50 is greater than 200 µM and the pIC50 is less than 3.70.
Consider `O=C(NNc1nc(-c2ccc(Br)cc2)cs1)Nc1ccccc1` [Comp. 30, 2-[4-(4-bromophenyl)-1,3-thiazol-2-yl]-N-phenylhydrazinecarboxamide], for which the LDH in the data set on uninduced N2A cells was 6.4%. Besides, at tau construct K19, the DC50 is greater than 200 µM and the pIC50 was 3.83.
With `O=C(NNc1nc(-c2ccc(Cl)cc2)cs1)c1ccccc1F` [Comp. 72, N′-[4-(4-chlorophenyl)-1,3-thiazol-2-yl]-2-fluorobenzohydrazide], on tau construct K19, the DC50 is greater than 200 µM and the pIC50 is 4.00.
For `Cc1nc(NNC(=O)c2ccc(-c3ccccc3)cc2)sc1-c1ccc(Br)cc1` [Comp. 64, N′-[5-(4-bromophenyl)-4-methyl-1,3-thiazol-2-yl]-1,1′-biphenyl-4-carbohydrazide], in the data set on uninduced N2A cells, the LDH came to 8.9%. Moreover, the pIC50 on tau construct K19 was less than 3.70.
Consider `CN(Nc1nc(-c2ccc([N+](=O)[O-])cc2)cs1)C(=O)c1ccc(-c2ccccc2)cc1` [Comp. 76, N-methyl-N′-[4-(4-nitrophenyl)-1,3-thiazol-2-yl]-1,1′-biphenyl-4-carbohydrazide], for which, on tau construct K19, the DC50 turned out to be 138 µM and the pIC50 is 4.17.
Regarding `O=C(NNc1nc(-c2ccc(Br)cc2)cs1)c1ccc(F)cc1` [Comp. 40, N′-[4-(4-bromophenyl)-1,3-thiazol-2-yl]-4-fluorobenzohydrazide], the LDH with uninduced N2A cells is listed as 4.9%. On tau construct K19, the DC50 was greater than 200 µM and the pIC50 was less than 3.70.
On the same counts, the results for `O=C(NNc1nc(-c2ccc([N+](=O)[O-])cc2)cs1)c1ccc(F)cc1` [Comp. 18, 4-fluoro-N′-[4-(4-nitrophenyl)-1,3-thiazol-2-yl]benzohydrazide] are 46.9%, 0.9 µM and 5.16.
On the same counts, the results for `Cc1sc(NNC(=O)c2ccc(F)cc2)nc1-c1ccccc1` [Comp. 32, 4-fluoro-N′-(5-methyl-4-phenyl-1,3-thiazol-2-yl)benzohydrazide] are 18.4%, greater than 200 µM and 3.71.
For `O=C(NNc1nc(-c2ccc(Br)cc2)cs1)c1ccc(-c2ccccc2)cc1` [Comp. 39, N′-[4-(4-bromophenyl)-1,3-thiazol-2-yl]-1,1′-biphenyl-4-carbohydrazide], in the data set on uninduced N2A cells, the LDH turned out to be 4.9%. Besides, at tau construct K19, the DC50 is greater than 200 µM and the pIC50 is less than 3.70.
On the same counts, the results for `O=C(NNc1nc(-c2ccc(Br)cc2)cs1)c1ccncc1` [Comp. 21, N′-[4-(4-bromophenyl)-1,3-thiazol-2-yl]isonicotinohydrazide] are 1.5%, 20.2 µM and 4.74.
As to `O=C(NNc1nc(-c2ccc(N3CCCC3)cc2)cs1)c1ccc(F)cc1` [Comp. 15, 4-fluoro-N′-[4-(4-pyrrolidin-1-ylphenyl)-1,3-thiazol-2-yl]benzohydrazide], in the data set with uninduced N2A cells, the LDH is listed as −1.1%. At tau construct K19, the DC50 is 0.7 µM and the pIC50 was 5.31.
In the same order, the values of `O=C(NNc1nc2c(s1)Cc1ccccc1-2)c1ccc2c(c1)OCO2` [Comp. 44, N′-8H-indeno[1,2-d][1,3]thiazol-2-yl-1,3-benzodioxole-5-carbohydrazide] are 18.8%, greater than 200 µM and less than 3.70.
In the same order, the values of `O=C(NNc1nc(-c2cc3ccccc3oc2=O)cs1)c1ccc2ccccc2c1` [Comp. 4, N′-(4-(2-Oxo-2H-chromen-3-yl)thiazol-2-yl)-2-naphthohydrazide] are 15.7%, 88 µM and less than 3.70.
In the same order, the values of `COc1cccc(-c2csc(NNC(=O)c3cccs3)n2)c1` [Comp. 23, N′-[4-(3-methoxyphenyl)-1,3-thiazol-2-yl]thiophene-2-carbohydrazide] are 25.3%, greater than 200 µM and 4.55.
For the compound `CN(C(=O)c1ccc(-c2ccccc2)cc1)N(C)c1nc(-c2ccc([N+](=O)[O-])cc2)cs1` [Comp. 77, N,N′-dimethyl-N′-[4-(4-nitrophenyl)-1,3-thiazol-2-yl]-1,1′-biphenyl-4-carbohydrazide], at tau construct K19, the DC50 amounted to 17.7 µM and the pIC50 was 4.96.
In the case of `O=C(NNc1nc(-c2ccc(F)cc2)cs1)c1ccc(Cl)cc1` [Comp. 31, 4-chloro-N′-[4-(4-fluorophenyl)-1,3-thiazol-2-yl]benzohydrazide], the LDH in the data set with uninduced N2A cells came to 56.1%. In addition, at tau construct K19, the DC50 is greater than 200 µM and the pIC50 was 3.74.
On the same counts, the results for `COc1cccc(-c2csc(NNC(=O)c3ccc(Cl)cc3)n2)c1` [Comp. 27, 4-chloro-N′-[4-(3-methoxyphenyl)-1,3-thiazol-2-yl]benzohydrazide] are 42.1%, greater than 200 µM and 4.23.
For `Cc1sc(NNC(=O)c2ccc(Cl)cc2)nc1-c1cccc([N+](=O)[O-])c1` [Comp. 19, 4-chloro-N′-[5-methyl-4-(3-nitrophenyl)-1,3-thiazol-2-yl]benzohydrazide], the LDH with uninduced N2A cells was 47.4%. On tau construct K19, the DC50 was found to be 10.8 µM and the pIC50 was 5.11.
As to `O=C(NNc1nc(-c2ccc(Cl)cc2)cs1)c1ccccc1` [Comp. 71, N′-[4-(4-chlorophenyl)-1,3-thiazol-2-yl]benzohydrazide], on tau construct K19, the DC50 was greater than 200 µM and the pIC50 is less than 3.70.
On the same counts, the results for `O=C(NNc1nc(-c2ccc(-c3ccccc3)cc2)cs1)c1ccccc1F` [Comp. 74, N′-[4-(1,1′-biphenyl-4-yl)-1,3-thiazol-2-yl]-2-fluorobenzohydrazide] are 53.9 µM and 4.69.
On the same counts, the results for `COc1ccc(-c2csc(NNC(=O)c3ccccc3)n2)cc1` [Comp. 69, N′-[4-(4-methoxyphenyl)-1,3-thiazol-2-yl]benzohydrazide] are 19.4 µM and 4.29.
In the same order, the values of `O=C(NNc1nc(-c2cccc([N+](=O)[O-])c2)cs1)c1ccccc1F` [Comp. 73, 2-fluoro-N′-[4-(3-nitrophenyl)-1,3-thiazol-2-yl]benzohydrazide] are 38.5 µM and 4.76.
In the case of `COc1ccc(-c2csc(NNC(=O)c3ccccc3F)n2)cc1` [Comp. 70, 2-fluoro-N′-[4-(4-methoxyphenyl)-1,3-thiazol-2-yl]benzohydrazide], on tau construct K19, the DC50 stood at 30.5 µM and the pIC50 is 4.69.
